Read-outs that look alike come from different tables or passages of the source.
What was measured:
C3a receptor (C3aR) = molecular target: T1, C3a receptor (C3aR) (Homo sapiens, UniProt Q16581); test: Competitive binding with [^125I]-C3a in HMDM; details: for remaining activity at 20 µM: 1 h, read-out: %[^125I]-C3a binding
T1 construct: peripheral blood mononuclear cells were isolated from buffy coat (obtained from Australian Red Cross Blood Service, Kelvin Grove); endogenous in cells; host or cells: primary human monocyte-derived macrophages (HMDM) differentiated from CD14+ monocytes of donor buffy coat
T1 sequence (Q16581 1-482): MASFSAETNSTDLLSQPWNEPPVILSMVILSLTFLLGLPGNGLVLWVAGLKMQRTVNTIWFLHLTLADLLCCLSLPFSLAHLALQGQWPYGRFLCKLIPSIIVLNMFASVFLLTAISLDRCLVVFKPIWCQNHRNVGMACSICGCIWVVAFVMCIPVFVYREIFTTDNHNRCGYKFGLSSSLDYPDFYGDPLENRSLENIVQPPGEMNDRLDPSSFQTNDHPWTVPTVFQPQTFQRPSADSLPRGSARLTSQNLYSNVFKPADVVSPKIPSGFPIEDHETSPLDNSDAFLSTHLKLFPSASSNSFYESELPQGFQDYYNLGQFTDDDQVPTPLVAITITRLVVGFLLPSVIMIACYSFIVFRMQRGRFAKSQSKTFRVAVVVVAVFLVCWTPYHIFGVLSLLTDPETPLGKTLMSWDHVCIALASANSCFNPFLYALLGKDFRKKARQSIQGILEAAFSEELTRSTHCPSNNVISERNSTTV
Source text: For HMDM, peripheral blood mononuclear cells were isolated from buffy coat (obtained from Australian Red Cross Blood Service, Kelvin Grove) using Ficoll-paque density centrifugation (GE Healthcare Bio-Science, Uppsala, Sweden). CD^14+ monocytes were positively selected using CD^14+ MACS magnetic beads (Miltenyi Biotech, Auburn, Calif., USA). […] Cells were harvested by gentle scraping in saline solution and replated for use on Day 7. […] Unbound radioactivity was removed by filtration through glass microfiber filters GF/B (Whatman Iner. […] The filter was washed 3 times with cold buffer (50 mM Tris-HCl) pH 7.4. […] The −log IC50 for each compound was calculated for separate experiments and express as an arithmetic mean standard error (SE). IC50 values were expressed as a geometric mean.

C3aR = molecular target: T2, C3aR (Homo sapiens, UniProt Q16581); test: Calcium mobilization assay in HMDM (agonist/antagonist activity); format: cell-based; details: for Emax at 10 µM: read-out: % agonist
T2 construct: peripheral blood mononuclear cells were isolated from buffy coat (obtained from Australian Red Cross Blood Service, Kelvin Grove); endogenous in cells; host or cells: primary human monocyte-derived macrophages (HMDM) differentiated from CD14+ monocytes of donor buffy coat
T2 sequence (Q16581 1-482): T1 sequence (Q16581 1-482)
Method: Harvested HMDM cells were washed with 0.9% NaCl solution by centrifugation at 2500 rpm for 5 min, followed by resuspension of the cell pellet with complete media. Cells were seeded at 5×10^4 cells/well in a 96-well black-wall, clear bottom plate (DKSH, Zurich), and left overnight to adhere at 37° C. On the day of the experiment, supernatant was removed and cells were incubated in dye loading buffer (Hank's Balanced Salt Solution (HBSS) with 4 μM Fluo-3, 25 μL pluronic acid, 1% fetal bovine serum (FBS) and 2.5 mM probenecid) for one hour at 37° C. Cells were then washed twice with HBSS and transferred to a Fluorostar spectrofluorimeter (BMG, Durham N.C.) for oxazole compound injection and fluorescence measurements.
Various compounds were examined in the calcium mobilization assay for agonist or antagonist activity compared to hC3a and to the known antagonist SB290157.
HMDMs were seeded into black-wall, clear bottom 96-well plates (Corning Incorporated, NY) at 50,000 cells/well and left to incubate at 37° C. with 5% CO2 overnight for cells to adhere. The medium was removed before being washed with the assay buffer (1×HBSS, 20 mM HEPES, 2.5 mM probenecid, pH 7.4). To each well was added 100 μL of dye-loading buffer made up of 12 mL calcium buffer, 1% FBS, 25 μL of Fluo-3 dye (final concentration of 4 μM) and 25 μL of 20% pluronic acid. The plate was covered in aluminium foil to protect the light-sensitive dye and left to incubate at 37° C. for 1 h. The dye-loading buffer was removed before the cells were washed with the assay buffer to remove excess loading dye. To each well was added 50 μL of fresh assay buffer before the plate was loaded into a FLIPR (Fluorescent Imaging Plate Reader) that can inject treatments and measure any calcium release. To generate agonist plots, calcium release was monitored for 300 seconds. To generate antagonist plots, calcium release was recorded for 900 seconds, which at the same time would allow incubation for the antagonists. After the initial incubation period, an agonist would be added and the response was recorded for 300 seconds. Intracellular release of calcium was recorded via fluorescence measurements at wavelength of 485 nm for excitation and 520 nm for emission.

[1] = Table 6, competitive binding with [^125I]-C3a, HMDM, read-out: IC50 (converted)
[2] = Table 9, Ca^2+ mobilization, HMDM, read-out: EC50
[3] = Table 14, binding affinity for C3aR on HMDM, read-out: -Log IC50 (converted)
[4] = Table 6, competitive binding with [^125I]-C3a, HMDM

SMILES	IC50 (C3a receptor (C3aR); [1])	Emax at 10 µM (C3aR)	further results
Cc1oc([C@H](CC(C)C)NC(=O)CCC(C)C)nc1C(=O)N[C@@H](CCCNC(=N)N)C(=O)O [Compound 35, 4-Methyl valeric acid-Leucine-5-Methyl-Oxazole-Arginine]		95%	
Cc1oc([C@H](CC(C)C)NS(=O)(=O)c2ccccc2)nc1C(=O)N[C@@H](CCCNC(=N)N)C(=O)O [Compound 40, Phenyl sulfonamide-Leucine-5-Methyl-Oxazole-Arginine]		103%	remaining activity at 20 µM (C3a receptor (C3aR)): 44%
Cc1oc([C@H](CC(C)C)NC(=O)c2cc3ccccc3o2)nc1C(=O)N[C@@H](CCCNC(=N)N)C(=O)O [Compound 26, Benzofuran carboxylic acid-Leucine-5-Methyl-Oxazole-Arginine]		84%	remaining activity at 20 µM (C3a receptor (C3aR)): 19%
Cc1oc([C@H](CC(C)C)NC(=O)c2cccnc2)nc1C(=O)N[C@@H](CCCNC(=N)N)C(=O)O [Compound 30]		68%	remaining activity at 20 µM (C3a receptor (C3aR)): 29%
Cc1oc([C@H](CC(C)C)NC(=O)c2cc3ccccc3[nH]2)nc1C(=O)N[C@@H](CCCNC(=N)N)C(=O)O [Compound 28, Indole-2-carboxylic acid-Leucine-5-Methyl-Oxazole-Arginine]		56%	remaining activity at 20 µM (C3a receptor (C3aR)): 26%
N=C(N)NCCC[C@H](NC(=O)c1ccc(C(c2ccccc2)c2ccccc2)o1)C(=O)O [Compound 57, 5-Diphenylmethyl-furan-2-carboxyl-Arg-OH]			Function at C3aR (agonist / antagonist) (C3aR; text of Example 100): antagonist
Cc1c(C(=O)N[C@@H](CCCNC(=N)N)C(=O)O)nc([C@H](CC(C)C)NC(=O)OC(C)(C)C)n1C [Compound 81, Boc-Leucine-1-methylimidazole-Arginine-OH]			EC50 (C3aR; [2]): 60 nM
Cc1oc([C@H](CC(C)C)NC(=O)c2ccc(Oc3ccccc3)cc2)nc1C(=O)N[C@@H](CCCNC(=N)N)C(=O)O [Compound 49, 4-Phenoxybenzoic acid-Leucine-5-Methyl-Oxazole-Arginine]		105%	
Cc1oc([C@H](CC(C)C)NC(=O)c2ccncc2)nc1C(=O)N[C@@H](CCCNC(=N)N)C(=O)O [Compound 31, Isonicotinic acid-Leucine-5-Methyl-Oxazole-Arginine]		109%	
CC(C)C[C@H](NC(=O)OC(C)(C)C)c1nc(C(=O)N[C@@H](CCCNC(=N)N[N+](=O)[O-])C(=O)O)co1 [Compound 89, (S)-2-(2-((S)-1-((tert-butoxycarbonyl)amino)-3-methylbutyl)oxazole-4-carboxamido)-5-(3-nitroguanidino)pentanoic acid]	129 nM		
COc1cccc(C(=O)N[C@@H](CC(C)C)c2nc(C(=O)N[C@@H](CCCNC(=N)N)C(=O)O)c(C)o2)c1 [Compound 42, m-Anisic acid-Leucine-5-Methyl-Oxazole-Arginine]		134%	
CC(C)C[C@H](NC(=O)OC(C)(C)C)c1nc(C(=O)N[C@@H](Cc2ccc(C(=N)NO)cc2)C(=O)O)co1 [Compound 84, (S)-2-(2-((S)-1-((tert-butoxycarbonyl)amino)-3-methylbutyl)oxazole-4-carboxamido)-3-(4-(N-hydroxycarbamimidoyl)phenyl)propanoic acid]	76 nM		
N=C(N)NCCC[C@H](NC(=O)c1cnc(C(c2ccccc2)c2ccccc2)s1)C(=O)O [Compound 78]			IC50 (C3a receptor (C3aR); [3]): 3.98 nM
Cc1ccc(NC(=O)N[C@@H](CC(C)C)c2nc(C(=O)N[C@@H](CCCNC(=N)N)C(=O)O)c(C)o2)cc1 [Compound 45, p-Tolyl isocyanate-Leucine-5-Methyl-Oxazole-Arginine]		64%	

The next lines start with results.

IC50 (C3a receptor (C3aR); [1])	SMILES	Emax at 10 µM (C3aR)	further results
754 nM	CC(C)C[C@H](NC(=O)CC(c1ccccc1)c1ccccc1)c1nc(C(=O)N[C@@H](CCCNC(=N)N)C(=O)O)co1 [Compound 19, 3,3-diphenylpropanoic acid-Leucine-Oxazole-Arginine-OH]		EC50 (C3aR; [2]): 744 nM
38 nM	Cc1nc(C(c2ccccc2)c2ccccc2)sc1C(=O)N[C@@H](CCCNC(=N)N)C(=O)O [Compound 59, 2-Diphenylmethyl-4-methyl thiazole-5-carboxyl-Arg-OH]		IC50 (C3a receptor (C3aR); Table 6, competitive binding with [^125I]-C3a, HMDM, read-out: pIC50 ± SEM (converted)): 91.2 nM; IC50 (C3a receptor (C3aR); Table 8, HMDM, read-out: Receptor Binding Affinity ^125I IC50): 38 nM; IC50 (C3a receptor (C3aR); Table 12, read-out: Receptor Binding Affinity IC50): 91 nM; IC50 (C3a receptor (C3aR); [3]): 12.6 nM; EC50 (C3aR; [2]): 74800 nM; IC50 (C3aR; Table 10, HMDM, read-out: Antagonist Activity Ca^2+ IC50): 1000 nM; EC50 (C3aR; Table 12, read-out: Apparent Agonist Activity EC50): 74800 nM
104 nM	CC[C@H](C)[C@H](NC(=O)C1CCCc2ccccc21)c1nc(C(=O)N[C@@H](CCCNC(=N)N)C(=O)O)co1 (stereo partly drawn) [Compound 21, Tetrahydronapthalene-isoleucine-oxazole-arginine-OH]		pIC50 ± SEM (C3a receptor (C3aR); [4]): 6.98 ± 0.11; pEC50 ± SEM (C3aR; Table 9, Ca^2+ mobilization, HMDM): 6.62 ± 0.28; EC50 (C3aR; [2]): 240 nM
2290 nM	CC(C)(C)OC(=O)N[C@@H](Cc1c[nH]c2ccccc12)c1nc(C(=O)N[C@@H](CCCNC(=N)N)C(=O)O)co1 [Compound 4, Boc-L-Tryptophan-Oxazole-Arg]		
451 nM	CC(C)C[C@H](NC(=O)[C@@H](C)c1ccc(N2Cc3ccccc3C2=O)cc1)c1nc(C(=O)N[C@@H](CCCNC(=N)N)C(=O)O)co1 [Compound 15, 2-(4-(1-oxoisoindolin-2-yl)phenyl)propanoic acid Leucine-Oxazole-Arginine-OH]		
157 nM	CC[C@H](C)[C@H](NC(=O)c1ccc(C(=O)c2ccccc2)cc1)c1nc(C(=O)N[C@@H](CCCNC(=N)N)C(=O)O)co1 [Compound 12, 4-Benzoylbenzoic acid-Isoleucine-Oxazole-Arginine-OH]		pIC50 ± SEM (C3a receptor (C3aR); [4]): 6.80 ± 0.15
1030 nM	CC(C)Cc1ccc([C@H](C)C(=O)N[C@@H](CC(C)C)c2nc(C(=O)N[C@@H](CCCNC(=N)N)C(=O)O)co2)cc1 [Compound 14, 2-(4-isobutylphenyl)propanoic acid Leucine-Oxazole-Arginine-OH]		
1220 nM	CC(C)C[C@H](NC(=O)OC(C)(C)C)c1nnc(C(=O)N[C@@H](CCCNC(=N)N)C(=O)O)o1 [Compound 83, Boc-Leucine-1-oxa-3,4-diazole-Arginine-OH]		
1140 nM	Cc1c(C(=O)N[C@@H](CCCNC(=N)N)C(=O)O)nc(C(c2ccccc2)c2ccccc2)n1C [Compound 97, 2-Benzhydryl-1,5-Dimethyl imidazole-4-carboxyl-Arginine]		IC50 (C3a receptor (C3aR); [3]): 1260 nM
509 nM	CC(C)(C)OC(=O)N[C@@H](Cc1ccccc1)c1nc(C(=O)N[C@@H](CCCNC(=N)N)C(=O)O)co1 [Compound 3, Boc-L-Phenylalanine-Oxazole-Arg]		
142 nM	CC(C)C[C@H](NC(=O)C1c2ccccc2-c2ccccc21)c1nc(C(=O)N[C@@H](CCCNC(=N)N)C(=O)O)co1 [Compound 17, 9-Fluorenecarboxylic acid-Leu-Oxazole-Arginine-OH]		pIC50 ± SEM (C3a receptor (C3aR); [4]): 6.85 ± 0.15
800 nM	CC[C@H](C)[C@H](NC(=O)c1ccc(N(C)C)cc1)c1nc(C(=O)N[C@@H](CCCNC(=N)N)C(=O)O)co1 [Compound 11, 4-(Dimethylamino)benzoic acid-Isoleucine-Oxazole-Arginine-OH]		pIC50 ± SEM (C3a receptor (C3aR); [4]): 6.10 ± 0.16

From patent publication US9586914B2, “Modulators of C3a receptors” (THE UNIVERSITY OF QUEENSLAND, priority 2011, dated 2017)
